Assay [1] concerns the target Glycogen synthase kinase-3 alpha (Homo sapiens, UniProt P49840). The assay is described as follows: Inhibition of human recombinant GSK3alpha.
The target in assay [2] is Glycogen synthase kinase-3 beta (Homo sapiens) (UniProt P49841). In words: Inhibition of human recombinant GSK3beta.
Assay [3] addresses Cyclin-dependent kinase 9/cyclin T1 (Homo sapiens). The assay is described as follows: Inhibition of CDK9/cyclin T1 (unknown origin).

A word on the IC50: it is the concentration that gives 50% inhibition.

Chain of Glycogen synthase kinase-3 beta (Homo sapiens) (P49841 whole entry, looked up): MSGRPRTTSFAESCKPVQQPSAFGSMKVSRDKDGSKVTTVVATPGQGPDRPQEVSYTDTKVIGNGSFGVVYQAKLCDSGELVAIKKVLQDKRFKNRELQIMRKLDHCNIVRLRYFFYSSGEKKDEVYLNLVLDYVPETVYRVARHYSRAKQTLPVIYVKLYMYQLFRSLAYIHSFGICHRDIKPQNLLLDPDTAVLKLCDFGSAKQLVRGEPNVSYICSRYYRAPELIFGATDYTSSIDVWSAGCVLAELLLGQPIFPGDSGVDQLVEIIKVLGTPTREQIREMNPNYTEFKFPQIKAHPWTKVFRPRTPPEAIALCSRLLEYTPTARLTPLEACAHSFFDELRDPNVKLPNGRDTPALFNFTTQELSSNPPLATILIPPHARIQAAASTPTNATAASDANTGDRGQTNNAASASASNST
Chain of Glycogen synthase kinase-3 alpha (P49840 whole entry): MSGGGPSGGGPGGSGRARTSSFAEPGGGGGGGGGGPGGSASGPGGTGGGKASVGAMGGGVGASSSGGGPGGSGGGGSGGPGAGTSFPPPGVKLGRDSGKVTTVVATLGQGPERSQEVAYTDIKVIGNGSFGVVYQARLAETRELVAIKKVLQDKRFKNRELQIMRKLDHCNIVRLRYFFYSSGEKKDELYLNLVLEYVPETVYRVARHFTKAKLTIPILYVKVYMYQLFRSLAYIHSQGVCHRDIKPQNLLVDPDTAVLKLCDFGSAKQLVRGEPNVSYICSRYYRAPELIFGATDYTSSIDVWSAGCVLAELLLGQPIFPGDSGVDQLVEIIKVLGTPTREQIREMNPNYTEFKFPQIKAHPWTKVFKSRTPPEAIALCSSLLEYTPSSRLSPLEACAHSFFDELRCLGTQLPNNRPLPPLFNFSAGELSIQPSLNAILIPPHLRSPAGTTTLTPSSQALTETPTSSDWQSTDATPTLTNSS

For the molecule `COc1ncccc1C(=O)Nc1cc(S(C)(=O)=O)ccc1N1CCC(Oc2ccc(F)cc2F)CC1` [Name not given], the IC50 in assay [1] was found to be 2.3 µM.

Regarding `CCN1CCC(NC(=O)c2c(C)noc2C(C)C)CC1` [Name not given], in assay [2], the IC50 came out at 9.1 µM.

`COc1cc(CC(=O)Nc2cc(C3CCC3)[nH]n2)cc(OC)c1OC` gave an IC50 in assay [3] of 5.71 µM.

The record behind these values is BindingDB's records for PubMed 37722288 (Southwest Jiaotong University).
